No end group written: not given here.
Assays:
HLA-DRβ1*0401 = target: T1, HLA-DRβ1*0401 (Homo sapiens, UniProt P01903+P01911, A100K/A169T/F76Y/I96L/K127E/L162R/M171V/N62H/P40V/Q125Y/R42H/S133A/S149N/S66Y/V115G/V209L/W38E); test: In vitro HLA-DRβ1 binding assay (competitive ELISA, biotinylated control peptide displacement); settings: for inhibition at 250 µM: 24 h, read-out: Binding percentage; for IC50: DRβ1*0401, 50% displacement of biotinylated HA, 4.2 to 250 μM serial dilutions, second order exponential decay fit
T1 construct: endogenous in cells; host or cells: IHW09025 homozygous lymphoblastoid B-cell line (IHWG)

HLA-DRβ1*0701 = HLA-DRβ1*0701 (Homo sapiens, UniProt P01903+P01911, A100R/A102G/A103Q/D57E/D86V/E43K/F76Y/K127E/L162R/M171V/P40G/Q125H/Q99D/R33Q/R42Y/R54Q/S133A/S66F/T210M/V115G/Y107V/Y59L/Y89S); test: biochemical; assay type: binding; settings: for inhibition at 250 µM: 24 h, read-out: Binding percentage; for IC50: 50% displacement of biotinylated TT, 4.2 to 250 μM serial dilutions, second order exponential decay fit
HLA-DRβ1*1101 = target: T2, HLA-DRβ1*1101 (Homo sapiens, UniProt P01903+P01911, A100R/A169T/A87E/I96F/K41T/L162R/M171V/P40S/Q125H/Q178H/Q39Y/Q99D/R42S/S66Y/T262R/V115G/W38E); test: biochemical; assay type: binding; settings: for inhibition at 250 µM: 24 h, read-out: Binding percentage; for IC50: DRβ1*1101, 50% displacement of biotinylated HA, 4.2 to 250 μM serial dilutions, second order exponential decay fit
T2 construct: endogenous in cells; host or cells: IHW09043 homozygous lymphoblastoid B-cell line (IHWG)
T2 sequence (P01903 26-254, other chains not shown): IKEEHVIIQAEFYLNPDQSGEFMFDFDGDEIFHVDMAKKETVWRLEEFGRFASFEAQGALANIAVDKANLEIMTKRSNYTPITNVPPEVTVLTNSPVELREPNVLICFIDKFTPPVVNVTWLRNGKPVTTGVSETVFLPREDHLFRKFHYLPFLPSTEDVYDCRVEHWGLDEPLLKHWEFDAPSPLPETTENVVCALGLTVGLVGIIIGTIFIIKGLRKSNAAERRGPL

HLA-DRβ1*1302 = HLA-DRβ1*1302 (Homo sapiens, UniProt P01903+P01911, A100E/A169T/K41T/L162R/M171V/P40S/Q125H/Q178H/Q39Y/Q99D/R42S/S66N/T262R/V115G/W38E/Y61H); test: biochemical; assay type: binding; settings: for IC50: 50% displacement of biotinylated TT, 4.2 to 250 μM serial dilutions, second order exponential decay fit; for inhibition at 250 µM: 24 h, read-out: Binding percentage
Chain of HLA-DRβ1*1302 (P01903 26-254 limits assumed, other chains not shown): as the sequence (P01903 26-254, other chains not shown) above

[1] = test system: CD4+ T-lymphocytes (PBMCs); test: Lymphoproliferation assay (CFSE, flow cytometry); assay type: cell-based, human
Procedure: P. vivax-exposed individuals and control group PB samples were taken and placed in citrate phosphate dextrose (CPD) solution in Vacutainer tubes (BD Vacutainer); 40 mL blood was used to obtain PBMCs from gradient centrifugation with Ficoll-Paque PLUS (GE Healthcare) to evaluate the proliferative response against Pv12 peptides.
Two hundred thousand (2 x 10^5) PBMCs per well were seeded in 96-well round-bottomed plates (Costar, Corning Incorporated) in RPMI 1640 medium (Gibco) supplemented with inactivated 10% autologous plasma, 2 g/L sodium bicarbonate, 2 mM L-glutamine, 1 mM sodium pyruvate and100 U/mL Antibiotic-Antimycotic solution (all Gibco). The PBMCs were labelled with carboxyfluorescein diacetate N-succinimidyl ester (CFSE) (5μM) (CellTrace CFSE cell proliferation kit, Molecular Probes, Eugene, OR, USA) and stimulated with each peptide at 10 μg/mL final concentration.
Control PBMCs were stimulated with 5 μg/mL parasite lysate and 2% phytohaemagglutinin (PHA) (Sigma) as positive controls. Low binding peptide (LBP) 39115 was used as negative control in experimental binding assays and a well containing PBMCs with just medium (unstimulated) was used as assay control. The cells were cultured at 37°C in a 5% CO2 atmosphere for 96 hours; assays were carried out in duplicate. Pacific Blue-labelled mouse anti-human CD4 (RPA-T4 clone) (BD Biosciences) antibody was then used for labelling the cells which were read on a FACS Canto II flow cytometer (BD Biosciences). FlowJo software v7.6.5 (FlowJo, LLC) was used for analysing the data and CD4^+ T-lymphocyte proliferation.
Cell proliferation was calculated by relative loss regarding CFSE fluorescence intensity, calculated as the percentage of fluorescence intensity of cells co-cultured with antigen divided by the percentage of co-cultured cells’ fluorescence intensity in the absence of antigen. The results were expressed as stimulation index (SI); a ≥2 value was considered positive.
CD4+ lymphocyte mean fluorescence intensity (MFI) values were used for additional analysis. Cell proliferation was calculated as the stimulation rate, where the unstimulated CD4+ T-cell population MFI was divided by the stimulated CD4+ T-cell population’s MFI. MFI becomes less as the antigen stimulates CD4+ T-lymphocytes, whereby ≥1 values indicate cell proliferation. The relative value of proliferation was considered positive, with at least 1% loss in the mean intensity of florescence of the CD4+ population, i.e. ≥1.01.

[2] = 0.1 μM purified molecule, 5 μM biotinylated TT, 250 μM test peptide, 24 h RT, OD 405 nm

Row | Substance | inhibition at 250 µM (HLA-DRβ1*0401) [%] | inhibition at 250 µM (HLA-DRβ1*0701; [2]) [%] | inhibition at 250 µM (HLA-DRβ1*1101) [%] | IC50 (HLA-DRβ1*1302) [µM] | inhibition at 250 µM (HLA-DRβ1*1302; [2]) [%] | IC50 (HLA-DRβ1*0401) [µM] | IC50 (HLA-DRβ1*1101) [µM] | IC50 (HLA-DRβ1*0701) [µM] | also measured
1 | GCDFTKNTSPLFTKG [Peptide 39119] | 17.4 | 29.4 | 26.9 | 7.47 | 92.2 | – | – | – | –
2 | phytohaemagglutinin [PHA, reference compound] | – | – | – | – | – | – | – | – | control group individuals responding ([1]; control group): 100%; frequency of response (responders, SI ≥2) ([1]; exposed individuals): 96.6%
3 | KRLVAHFEFATTPDD [Peptide 39122] | 80.9 | 23.1 | 74.9 | – | 71.1 | 58.9 | 170 | – | –
4 | LVEYLHGAAAIVKRK [Peptide 39118] | 13.5 | 90 | 48.2 | – | 31.7 | – | – | 15.2 | –
5 | LTDLVMDHYNKIFYA [Peptide 39120] | 26.7 | 40.6 | 32.7 | 38 | 86 | – | – | – | –
6 | LGIIEVLIPSLPKKI [Peptide 39117] | 33.1 | 98.6 | 51.1 | 6.65 | 95.4 | – | 134 | 11.5 | –
7 | KKSYDDVSFRVPPNL [Peptide 39115] | – | – | – | – | – | – | – | – | Binding percentage (HLA-DRβ1*0401): 12.98%; Binding percentage (HLA-DRβ1*0701; [2]): 9.86%; Binding percentage (HLA-DRβ1*1101): 20.02%; Binding percentage (HLA-DRβ1*1302; [2]): 12.00%; control group response (responders/8) ([1]; control group, n = 8): 0/8; frequency of response (responders, SI ≥2) ([1]; exposed individuals): 28%; stimulation index (SI), average response ([1]; exposed individuals, peptide 10 μg/mL, lysate 5 μg/mL, 96 h, CFSE, SI ≥2 positive): 2.018; responders according to relative proliferation values (MFI) ([1]; exposed individuals, positive ≥1.01): 50%
8 | YNKIFYARVPQRIYQ [Peptide 39114] | – | – | – | 73.3 | ≥ 50 | 43.2 | 8.28 | 43.1 | –
9 | RKNYELLPNNCFEQV [Peptide 39112] | 95.8 | 76.4 | 55.4 | – | 14.1 | 7.26 | – | 29.2 | –
10 | EECFLQGFNLSGKKE [Peptide 39113] | 95.8 | 8.89 | 62.9 | – | 9.28 | 7.36 | 38.5 | – | –

Reference: article PMC6130872, “Plasmodium vivax Pv12 B-cell epitopes and HLA-DRβ1*-dependent T-cell epitopes in vitro antigenicity” (PLoS ONE, 2018)
